In patent US4594421A, “Imidazopyridine compounds” (priority 1984, dated 1986):
Where two headings read alike, the source gives them in different places.

Legend:
[1] = Acute toxicity (LD50) in rat; parameters: species or system male Sprague-Dawley rats; conditions: in vivo, iv, Litchfield and Wilcoxon
Procedure: The LD50 were then calculated according to the method of Litchfield J. T. and Wilcoxon F. J. (J. Pharmac. Exp. Ther., 95, 99, 1949).

[2] = test system: phrenic-diaphragm preparation; test: Neuromuscular blocking activity in vitro, phrenic-diaphragm preparation; parameters: species or system male Sprague-Dawley rats; conditions: rat phrenic-diaphragm, 37° C., cumulative concentrations, read-out: EC50 (effective concentration able to reduce the muscular contraction of 50%)
Procedure: (§1) The neuromuscular blocking activity has been evaluated:
in vitro, using the phrenic-diaphragm preparation according to the method described by Bulbring E. (Brit. J. Pharmac. Chemother. 1, 38, 1946). The preparation, taken from male Sprague-Dawley rats weighing 200-250 g, was placed into a bath for isolated organs, thermostatically kept at 37° C. and containing a nutritional liquid oxygenated with […] carboxygen. The phrenic nerve was stimulated by means of square wave impulses (12 per min., duration 0.5 msec., overmaximal voltage). […] The dose-effect curve, determined for each of them, allowed to calculate the EC50 or effective concentration able to reduce the muscular contraction of 50% (Table 1);

[3] = test system: arterial blood pressure and heart rate; test: Cardiovascular effects (arterial blood pressure and heart rate) in vivo; parameters: species or system male Sprague-Dawley rats; conditions: rat, i.v.; for Arterial blood pressure Δ % / Heart rate Δ %: at ED50 on muscular contraction
Procedure: (§2) in vivo, using the sciatic-gastrocnemious preparation, substantially following the method described by Hughes R. (Br. J. Anaesth. 44, 27, 1972). Male Sprague-Dawley rats weighing 200-250 g, anaesthetized (urethane 1,2 g/kg i.p.) and submitted to forced ventilation, were treated. The sciatic nerve was stimulated at a rate of 6 impulses per min. by means of square waves and overmaximal voltage with a duration of 0.5 msec. The left carotid artery was incannulated for the continuous registration of arterial blood pressure and heart rate.
(§3) The compounds to be tested were administered by i.v. route at increasing doses, given at intervals of at least 30 min. from one to another and, in any case, after the effect of previous administration had completely exhausted.
(§4) In addition, the time of latence (the interval between the administration and the maximal effect) and that of complete recovery have been determined.

[4] = test system: sciatic-gastrocnemious preparation; test: Neuromuscular blocking activity in vivo, sciatic-gastrocnemious preparation; parameters: species or system male Sprague-Dawley rats; conditions: for ED50: iv, read-out: ED50 (effective dose causing the 50% reduction of muscular contraction)
Procedure: as §1, §2, §3, §4

[5] = test system: skeletal neuromuscular junction; conditions: known compound of the commerce; cited from earlier work
[6] = rat, i.v., anaesthetized (urethane)

In the case of Fc1ccc(-c2c[n+]3ccccc3n2CCCCCCn2c(-c3ccc(F)cc3)c[n+]3ccccc23)cc1 [Example 1, 1,1'-(1,6-Hexamethylene)bis[2-(4'-fluoro)phenyl]imidazo[1,2-a]pyridinium perchlorate], the LD50 [1] is reported as 3.9 µmol/kg, the EC50 [2] is reported as 15 µM and the “Arterial blood pressure Δ %” value [3] is reported as -37%. For the same compound, the “Heart rate Δ %” value [3] was “+28%”, the ED50 [4, 6] was 3 µg/kg and the “Latence (interval between the administration and the maximal effect)” value ([4]; rat, i.v.) was 2.2 min. The “Recovery (time of complete recovery)” value ([4]; rat, i.v.) was 7.9 min.

In the case of c1ccc(-c2c[n+]3ccccc3n2CCCCCCCCn2c(-c3ccccc3)c[n+]3ccccc23)cc1 [Example 2, 1,1'-(1,8-Octamethylene)bis-2-phenylimidazo[1,2-a]piridinium perchlorate], the LD50 [1] is reported as 2.7 µmol/kg, the EC50 [2] is reported as 11.9 µM and the “Arterial blood pressure Δ %” value [3] is reported as -45%. For the same compound, the “Heart rate Δ %” value [3] was “+22%”, the ED50 [4, 6] was 1.9 µg/kg and the “Latence (interval between the administration and the maximal effect)” value ([4]; rat, i.v.) was 2.2 min. The “Recovery (time of complete recovery)” value ([4]; rat, i.v.) was 9.2 min.

For Cc1c(-c2ccccc2)n(CCCCCCCCn2c(-c3ccccc3)c(C)[n+]3ccccc23)c2cccc[n+]12 [Example 3, 1,1'-(1,8-Octamethylene)bis(2-phenyl-3-methyl)imiadazo[1,2-a]pyridinium perchlorate], the LD50 [1] was 2 µmol/kg, the EC50 [2] was 14.3 µM and the “Arterial blood pressure Δ %” value [3] was -28%. The “Heart rate Δ %” value [3] was “+40%”, the ED50 [4, 6] was 1.6 µg/kg and the “Latence (interval between the administration and the maximal effect)” value ([4]; rat, i.v.) was 1.2 min. For the same compound, the “Recovery (time of complete recovery)” value ([4]; rat, i.v.) was 5.0 min.

In the case of Cc1c(-c2ccccc2)n(CCCCn2c(-c3ccccc3)c(C)[n+]3ccccc23)c2cccc[n+]12 [Example 4, 1,1'-(1,4-Tetramethylene)bis(2-phenyl-3-methyl)imidazo[1,2-a]pyridinium perchlorate], the LD50 [1] is reported as 4.3 µmol/kg, the EC50 [2] is reported as 28.7 µM and the “Arterial blood pressure Δ %” value [3] is reported as -28%. For the same compound, the “Heart rate Δ %” value [3] was “+1%”, the ED50 [4, 6] was 5 µg/kg and the “Latence (interval between the administration and the maximal effect)” value ([4]; rat, i.v.) was 1.3 min. The “Recovery (time of complete recovery)” value ([4]; rat, i.v.) was 6.2 min.

With COc1ccc(-c2c[n+]3ccccc3n2CCCCCCn2c(-c3ccc(OC)cc3)c[n+]3ccccc23)cc1 [Example 5, 1,1'-(1,6-Hexamethylene)bis[2-(4'-methoxy)phenyl]imidazo[1,2-a]pyridinium bromide monohydrate] the LD50 [1] was 2.6 µmol/kg, the EC50 [2] was 14.7 µM and the “Arterial blood pressure Δ %” value [3] was -39%. For the same compound, the “Heart rate Δ %” value [3] was “+26%”, the ED50 [4, 6] was 1.9 µg/kg and the “Latence (interval between the administration and the maximal effect)” value ([4]; rat, i.v.) was 1.5 min. The “Recovery (time of complete recovery)” value ([4]; rat, i.v.) was 6.4 min.

With Brc1ccc(-c2c[n+]3ccccc3n2CCCCCCn2c(-c3ccc(Br)cc3)c[n+]3ccccc23)cc1 [Example 7, 1,1'-(1,6-Hexamethylene)bis[2-(4-bromophenyl)]imidazo[1,2-a]pyridinium bromide] the LD50 [1] was 6 µmol/kg, the EC50 [2] was 15.4 µM and the “Arterial blood pressure Δ %” value [3] was -50%. For the same compound, the “Heart rate Δ %” value [3] was -8%, the ED50 [4, 6] was 3 µg/kg and the “Latence (interval between the administration and the maximal effect)” value ([4]; rat, i.v.) was 1.5 min. For the same compound, the “Recovery (time of complete recovery)” value ([4]; rat, i.v.) was 9.8 min.

In the case of Cc1c(-c2ccccc2)n(CCCCCCn2c(-c3ccccc3)c(C)[n+]3ccccc23)c2cccc[n+]12 [Example 8, 1,1'-(1,6-Hexamethylene)bis(2-phenyl-3-methyl)imidazo[1,2-a]pyridinium perchlorate], the LD50 [1] is reported as 2 µmol/kg, the EC50 [2] is reported as 13.6 µM and the “Arterial blood pressure Δ %” value [3] is reported as -40%. For the same compound, the “Heart rate Δ %” value [3] was “+68%”, the ED50 [4, 6] was 1.3 µg/kg and the “Latence (interval between the administration and the maximal effect)” value ([4]; rat, i.v.) was 2.1 min. The “Recovery (time of complete recovery)” value ([4]; rat, i.v.) was 7.7 min.

For c1ccc(-c2c[n+]3ccccc3n2CCCCn2c(-c3ccccc3)c[n+]3ccccc23)cc1 [Example 9, 1,1'-(1,4-Tetramethylene)bis-2-phenylimidazo[1,2-a]pyridinium perchlorate], the LD50 [1] was 3.2 µmol/kg, the EC50 [2] was 28.9 µM and the “Arterial blood pressure Δ %” value [3] was -31%. For the same compound, the “Heart rate Δ %” value [3] was “+25%”, the ED50 [4, 6] was 3.3 µg/kg and the “Latence (interval between the administration and the maximal effect)” value ([4]; rat, i.v.) was 2.1 min. The “Recovery (time of complete recovery)” value ([4]; rat, i.v.) was 7.0 min.

For c1ccc(-c2c[n+]3ccccc3n2CCn2c(-c3ccccc3)c[n+]3ccccc23)cc1 [Example 10, 1,1'-(1,2-Ethylene)bis-2-phenylimidazo[1,2-a]pyridinium perchlorate], the LD50 [1] was 8.8 µmol/kg, the EC50 [2] was 31.4 µM and the “Arterial blood pressure Δ %” value [3] was -30%. The “Heart rate Δ %” value [3] was “+28%”, the ED50 [4, 6] was 4 µg/kg and the “Latence (interval between the administration and the maximal effect)” value ([4]; rat, i.v.) was 2.8 min. The “Recovery (time of complete recovery)” value ([4]; rat, i.v.) was 14.0 min.

For c1ccc(-c2c[n+]3ccccc3n2CCCCCCn2c(-c3ccccc3)c[n+]3ccccc23)cc1 [Example 11, 1,1'-(1,6-Hexamethylene)bis-2-phenylimidazo[1,2-a]pyridinium perchlorate], the LD50 [1] was 3.1 µmol/kg, the EC50 [2] was 12.9 µM and the “Arterial blood pressure Δ %” value [3] was -40%. The “Heart rate Δ %” value [3] was “+42%”, the ED50 [4, 6] was 2.1 µg/kg and the “Latence (interval between the administration and the maximal effect)” value ([4]; rat, i.v.) was 2.3 min. For the same compound, the “Recovery (time of complete recovery)” value ([4]; rat, i.v.) was 8.8 min.

With Cc1c(-c2ccccc2)n(CCn2c(-c3ccccc3)c(C)[n+]3ccccc23)c2cccc[n+]12 [Example 12, 1,1'-(1,2-Ethylene)bis(2-phenyl-3-methyl)imidazo[1,2-a]pyridinium perchlorate] the LD50 [1] was 9.7 µmol/kg, the EC50 [2] was 115 µM and the “Arterial blood pressure Δ %” value [3] was -5%. For the same compound, the “Heart rate Δ %” value [3] was “+6%”, the “Arterial blood pressure Δ % at minimal active dose” value ([3]; at minimal active dose on muscular contraction) was -24% and the ED50 ([4]; Rattus norvegicus) was 5.6 µg/kg. The “Latence (interval between the administration and the maximal effect)” value ([4]; rat, i.v.) was 2.6 min and the “Recovery (time of complete recovery)” value ([4]; rat, i.v.) was 12.2 min.

In the case of Cc1c(-c2ccccc2)n(/N=N/n2c(-c3ccccc3)c(C)[n+]3ccccc23)c2cccc[n+]12 [Fazadinium bromide, 1,1-azabis 3-methyl-2-phenylimidazo 1,2-a pyridinium bromide, reference compound], the “known activity of the standard” value [5] is listed as “competitive skeletal muscle paralysing activity”, the LD50 [1] is listed as 1.5 µmol/kg and the EC50 [2] is listed as 13.9 µM. For the same compound, the “Arterial blood pressure Δ %” value [3] was -16%, the “Heart rate Δ %” value [3] was “+30%” and the ED50 [4, 6] was 1 µg/kg. The “Latence (interval between the administration and the maximal effect)” value ([4]; rat, i.v.) was 1.5 min, the “Recovery (time of complete recovery)” value ([4]; rat, i.v.) was 6.6 min and the “activity in vivo” value ([4]; rat, i.v.) was “active”.
